1 molecule from patent publication US11174269B2, “Method for producing 1,2,4,5-cyclohexanetetracarboxylic dianhydride” (MITSUBISHI GAS CHEMICAL COMPANY, INC., priority 2017, dated 2021) can be followed below.

A short description of the series: Saturation solubility of 1,2,4,5-cyclohexanetetracarboxylic acid in water. The class given is physicochemical. An excerpt: Here, the saturation solubility of 1,2,4,5-cyclohexanetetracarboxylic acid in water is as follows.

Consider `O=C(O)C1CC(C(=O)O)C(C(=O)O)CC1C(=O)O` (stereo not drawn) [1,2,4,5-cyclohexanetetracarboxylic acid], for which the “Saturation solubility (concentration of a saturated aqueous solution)” value reads like this: (88.2 °C) 29.6 % by mass; (98.3 °C) 33.1 % by mass; (100 °C) 33.7 % by mass.
